Experiments:
[1] = system: New Zealand rabbits with acute ocular hypertension; assay: Intraocular pressure reduction experiment in New Zealand rabbits with acute ocular hypertension, experiment operation 1; format: in vivo; settings: for Intraocular pressure in the left eye: left eye (not modeled); for Intraocular pressure in the right eye: right eye (induced ocular hypertension)
Source text: Experimental Example 3. Intraocular Pressure Reduction Experiment in New Zealand Rabbits with Acute Ocular Hypertension
Acute ocular hypertension of rabbits were induced by anterior chamber injection of a viscoelastic agent and the intraocular pressure reduction action of compound 60 and compound 63 at different concentrations were explored by eye-drop administration.
Male New Zealand rabbits, aged 97-127 days, weighted 2.5-3.4 kg, purchased from PizhouDongfang Breeding Co. Ltd.
Male New Zealand rabbits were randomly divided into 8 rabbits/per group according to body weight using a computer-generated randomization method. The animals in each group were injected with medical sodium hyaluronate gel in the anterior chamber of right eye in a single dose, 100 μL/eye, to induce ocular hypertension. In 5-15 minutes, 3 hours and 6 hours after right eye modeling, both eyes were dropped with a solvent, K-115 or test samples (compound 60 at different concentrations) at a volume of 50 μL/eye and intraocular pressure of the animals was measured before administration and in 1, 2, 4, 6, 8 and 10 hours after administration, respectively.

[2] = system: New Zealand rabbits with normal intraocular pressure; assay: Intraocular pressure reduction experiment in New Zealand rabbits with normal intraocular pressure; format: in vivo; settings: for Intraocular pressure in the left eye: 2.5 mg/mL group, left eye (saline or solvent); for Intraocular pressure in the right eye: 2.5 mg/mL in right eye; for Reduction magnitude of intraocular pressure: 2.5 mg/mL, left minus right eye
Source text: Experimental Example 2. Intraocular Pressure Reduction Experiment in New Zealand Rabbits with Normal Intraocular Pressure
Rabbits with normal intraocular pressure were adopted to screen intraocular pressure reduction actions of the potential compounds by eye-drop administration.
Male New Zealand rabbits, aged 97-127 days, weighted 2.65-3.5 kg, purchased from PizhouDongfang Breeding Co. Ltd.
The male New Zealand rabbits were randomly divided into 8 rabbits/per group using a computer-generated randomization method Animals in each group were eye-dropped with different test samples in the right eye, and normal saline or solvent in the left eye, and the volume of the administration was both 50 μL/eye. The intraocular pressure of the animals was measured before administration and in 1, 2, 4, 6, 8 and 10 hours after the administration, respectively.

[3] = 2.5 mg/mL both eyes, 1 hour after administration
[4] = 2.5 mg/mL both eyes, 2 hours after administration
[5] = 2.5 mg/mL both eyes, 4 hours after administration
[6] = 2.5 mg/mL both eyes, 6 hours after administration
[7] = 2.5 mg/mL both eyes, 8 hours after administration
[8] = 2.5 mg/mL both eyes, 10 hours after administration
[9] = 2.5 mg/mL both eyes, before administration
[10] = 5.0 mg/mL both eyes, 1 hour after administration
[11] = 5.0 mg/mL both eyes, 2 hours after administration
[12] = 5.0 mg/mL both eyes, 4 hours after administration
[13] = 5.0 mg/mL both eyes, 6 hours after administration
[14] = 5.0 mg/mL both eyes, 8 hours after administration
[15] = 5.0 mg/mL both eyes, 10 hours after administration
[16] = 5.0 mg/mL both eyes, before administration
[17] = 10 mg/mL both eyes, 1 hour after administration
[18] = 10 mg/mL both eyes, 2 hours after administration
[19] = 10 mg/mL both eyes, 4 hours after administration
[20] = 10 mg/mL both eyes, 6 hours after administration
[21] = 10 mg/mL both eyes, 8 hours after administration
[22] = 10 mg/mL both eyes, 10 hours after administration
[23] = 10 mg/mL both eyes, before administration

Cc1cn(COC(=O)c2ccccc2)c(=O)c2cccc(S(=O)(=O)N3CCC(N)C3)c12 (stereo not drawn) [Compound 60]
Intraocular pressure in the left eye [1, 3]: 5.00 mmHg | Intraocular pressure in the left eye [1, 4]: 6.63 mmHg | Intraocular pressure in the left eye [1, 5]: 8.29 mmHg | Intraocular pressure in the left eye [1, 6]: 10.71 mmHg | Intraocular pressure in the left eye [1, 7]: 12.17 mmHg | Intraocular pressure in the left eye [1, 8]: 12.00 mmHg | Intraocular pressure in the left eye [1, 9]: 12.00 mmHg | Intraocular pressure in the right eye [1, 3]: 22.33 mmHg | Intraocular pressure in the right eye [1, 4]: 19.75 mmHg | Intraocular pressure in the right eye [1, 5]: 20.29 mmHg | Intraocular pressure in the right eye [1, 6]: 17.00 mmHg | Intraocular pressure in the right eye [1, 7]: 14.54 mmHg | Intraocular pressure in the right eye [1, 8]: 12.54 mmHg | Intraocular pressure in the right eye [1, 9]: 12.54 mmHg | Intraocular pressure in the left eye [1, 10]: 4.96 mmHg | Intraocular pressure in the left eye [1, 11]: 5.96 mmHg | Intraocular pressure in the left eye [1, 12]: 8.29 mmHg | Intraocular pressure in the left eye [1, 13]: 11.21 mmHg | Intraocular pressure in the left eye [1, 14]: 11.46 mmHg | Intraocular pressure in the left eye [1, 15]: 11.75 mmHg | Intraocular pressure in the left eye [1, 16]: 11.75 mmHg | Intraocular pressure in the right eye [1, 10]: 21.00 mmHg | Intraocular pressure in the right eye [1, 11]: 16.29 mmHg | Intraocular pressure in the right eye [1, 12]: 16.75 mmHg | Intraocular pressure in the right eye [1, 13]: 14.88 mmHg | Intraocular pressure in the right eye [1, 14]: 13.08 mmHg | Intraocular pressure in the right eye [1, 15]: 11.25 mmHg | Intraocular pressure in the right eye [1, 16]: 11.25 mmHg | Intraocular pressure in the left eye [1, 17]: 4.63 mmHg | Intraocular pressure in the left eye [1, 18]: 5.50 mmHg | Intraocular pressure in the left eye [1, 19]: 9.25 mmHg | Intraocular pressure in the left eye [1, 20]: 10.79 mmHg | Intraocular pressure in the left eye [1, 21]: 11.75 mmHg | Intraocular pressure in the left eye [1, 22]: 12.13 mmHg | Intraocular pressure in the left eye [1, 23]: 12.13 mmHg | Intraocular pressure in the right eye [1, 17]: 19.83 mmHg | Intraocular pressure in the right eye [1, 18]: 17.46 mmHg | Intraocular pressure in the right eye [1, 19]: 15.00 mmHg | Intraocular pressure in the right eye [1, 20]: 12.33 mmHg | Intraocular pressure in the right eye [1, 21]: 11.25 mmHg | Intraocular pressure in the right eye [1, 22]: 12.08 mmHg | Intraocular pressure in the right eye [1, 23]: 12.08 mmHg | Intraocular pressure in the left eye ([2]; 1 hour after administration): 11.63 mmHg | Intraocular pressure in the left eye ([2]; 2 hours after administration): 11.58 mmHg | Intraocular pressure in the left eye ([2]; 4 hours after administration): 12.83 mmHg | Intraocular pressure in the left eye ([2]; 6 hours after administration): 12.38 mmHg | Intraocular pressure in the left eye ([2]; 8 hours after administration): 12.29 mmHg | Intraocular pressure in the left eye ([2]; 10 hours after administration): 14.33 mmHg | Intraocular pressure in the left eye ([2]; before administration): 12.13 mmHg | Intraocular pressure in the right eye ([2]; 1 hour after administration): 8.38 mmHg | Intraocular pressure in the right eye ([2]; 2 hours after administration): 7.58 mmHg | Intraocular pressure in the right eye ([2]; 4 hours after administration): 9.04 mmHg | Intraocular pressure in the right eye ([2]; 6 hours after administration): 9.88 mmHg | Intraocular pressure in the right eye ([2]; 8 hours after administration): 11.33 mmHg | Intraocular pressure in the right eye ([2]; 10 hours after administration): 13.71 mmHg | Intraocular pressure in the right eye ([2]; before administration): 12.38 mmHg | Reduction magnitude of intraocular pressure ([2]; 1 hour after administration): 3.25 mmHg | Reduction magnitude of intraocular pressure ([2]; 2 hours after administration): 4 mmHg | Reduction magnitude of intraocular pressure ([2]; 4 hours after administration): 3.79 mmHg | Reduction magnitude of intraocular pressure ([2]; 6 hours after administration): 2.5 mmHg | Reduction magnitude of intraocular pressure ([2]; 8 hours after administration): 0.96 mmHg | Reduction magnitude of intraocular pressure ([2]; 10 hours after administration): 0.62 mmHg | Reduction magnitude of intraocular pressure ([2]; before administration): −0.25 mmHg
